Test results reported in ChEMBL document CHEMBL5678810.

How the values were obtained:
[1] = tested on: Tyrosine-protein kinase ABL1 (Homo sapiens), P00519 [F317I]; assay: Inhibition of T7 bacteriophage fused human phosphorylated ABL1 F317I mutant at 10 uM by KINOMEscan analysis relative to control
[2] = target: Tyrosine-protein kinase ABL1 (Homo sapiens) (UniProt P00519); assay: Inhibition of T7 bacteriophage fused human phosphorylated ABL1 at 10 uM by KINOMEscan analysis relative to control
[3] = target: Activin receptor type-2B (Homo sapiens) (UniProt Q13705); assay: Inhibition of T7 bacteriophage fused human ACVR2B at 10 uM by KINOMEscan analysis relative to control
[4] = target: Aurora kinase C (Homo sapiens) (UniProt Q9UQB9); assay: Inhibition of T7 bacteriophage fused human AURKC at 10 uM by KINOMEscan analysis relative to control
[5] = tested on: Serine/threonine-protein kinase B-raf (Homo sapiens), P15056 [V600E]; assay: Inhibition of T7 bacteriophage fused human BRAF V600E mutant at 10 uM by KINOMEscan analysis relative to control
[6] = target: Casein kinase I isoform alpha-like (Homo sapiens) (UniProt Q8N752); assay: Inhibition of T7 bacteriophage fused human CSNK1A1L at 10 uM by KINOMEscan analysis relative to control
[7] = tested on: Receptor-type tyrosine-protein kinase FLT3 (Homo sapiens), P36888 [D835Y]; assay: Inhibition of T7 bacteriophage fused human FLT3 D835Y mutant at 10 uM by KINOMEscan analysis relative to control
[8] = target: Homeodomain-interacting protein kinase 4 (Homo sapiens) (UniProt Q8NE63); assay: Inhibition of T7 bacteriophage fused human HIPK4 at 10 uM by KINOMEscan analysis relative to control
[9] = target: Tyrosine-protein kinase JAK1 (Homo sapiens) (UniProt P23458); assay: Inhibition of T7 bacteriophage fused human JAK1JH2 pseudokinase domain at 10 uM by KINOMEscan analysis relative to control
[10] = tested on: Mast/stem cell growth factor receptor Kit (Homo sapiens), P10721 [A829P]; assay: Inhibition of T7 bacteriophage fused human KIT A829P mutant at 10 uM by KINOMEscan analysis relative to control
[11] = tested on: Mast/stem cell growth factor receptor Kit (Homo sapiens), P10721 [D816H]; assay: Inhibition of T7 bacteriophage fused human KIT D816H mutant at 10 uM by KINOMEscan analysis relative to control
[12] = target: Serine/threonine-protein kinase PAK 3 (Homo sapiens) (UniProt O75914); assay: Inhibition of T7 bacteriophage fused human PAK3 at 10 uM by KINOMEscan analysis relative to control
[13] = target: Serine/threonine-protein kinase PAK 6 (Homo sapiens) (UniProt Q9NQU5); assay: Inhibition of T7 bacteriophage fused human PAK6 at 10 uM by KINOMEscan analysis relative to control
[14] = target: Phosphatidylinositol 3-kinase C2 domain-containing subunit gamma (Homo sapiens) (UniProt O75747); assay: Inhibition of T7 bacteriophage fused human PIK3C2G at 10 uM by KINOMEscan analysis relative to control
[15] = tested on: Phosphatidylinositol 4,5-bisphosphate 3-kinase catalytic subunit alpha isoform (Homo sapiens), P42336 [C420R]; assay: Inhibition of T7 bacteriophage fused human PIK3CA C420R mutant at 10 uM by KINOMEscan analysis relative to control
[16] = tested on: Phosphatidylinositol 4,5-bisphosphate 3-kinase catalytic subunit alpha isoform (Homo sapiens), P42336 [E542K]; assay: Inhibition of T7 bacteriophage fused human PIK3CA E542K mutant at 10 uM by KINOMEscan analysis relative to control
[17] = target: Phosphatidylinositol 4,5-bisphosphate 3-kinase catalytic subunit gamma isoform (Homo sapiens) (UniProt P48736); assay: Inhibition of T7 bacteriophage fused human PIK3CG at 10 uM by KINOMEscan analysis relative to control
[18] = tested on: Proto-oncogene tyrosine-protein kinase receptor Ret (Homo sapiens), P07949 [M918T]; assay: Inhibition of T7 bacteriophage fused human RET M918T mutant at 10 uM by KINOMEscan analysis relative to control
[19] = tested on: Proto-oncogene tyrosine-protein kinase receptor Ret (Homo sapiens), P07949 [V804L]; assay: Inhibition of T7 bacteriophage fused human RET V804L mutant at 10 uM by KINOMEscan analysis relative to control
[20] = target: Serine/threonine-protein kinase NLK (Homo sapiens) (UniProt Q9UBE8); assay: Inhibition of T7 bacteriophage fused human NLK at 10 uM by KINOMEscan analysis relative to control; values are per cent of control
[21] = target: Rhodopsin kinase GRK1 (Homo sapiens) (UniProt Q15835); assay: Inhibition of T7 bacteriophage fused human GRK1 at 10 uM by KINOMEscan analysis relative to control; values are per cent of control
[22] = target: Dual specificity mitogen-activated protein kinase kinase 5 (Homo sapiens) (UniProt Q13163); assay: Inhibition of T7 bacteriophage fused human MEK5 at 10 uM by KINOMEscan analysis relative to control; values are per cent of control
[23] = target: Serine/threonine-protein kinase Nek1 (Homo sapiens) (UniProt Q96PY6); assay: Inhibition of T7 bacteriophage fused human NEK1 at 10 uM by KINOMEscan analysis relative to control; values are per cent of control
[24] = target: Cyclin-dependent kinase-like 3 (Homo sapiens) (UniProt Q8IVW4); assay: Inhibition of T7 bacteriophage fused human CDKL3 at 10 uM by KINOMEscan analysis relative to control; values are per cent of control
[25] = target: Ephrin type-A receptor 7 (Homo sapiens) (UniProt Q15375); assay: Inhibition of T7 bacteriophage fused human EPHA7 at 10 uM by KINOMEscan analysis relative to control; values are per cent of control
[26] = target: Mitogen-activated protein kinase 11 (Homo sapiens) (UniProt Q15759); assay: Inhibition of T7 bacteriophage fused human p38-beta at 10 uM by KINOMEscan analysis relative to control; values are per cent of control
[27] = tested on: Epidermal growth factor receptor (Homo sapiens), P00533 [T790M]; assay: Inhibition of T7 bacteriophage fused human EGFR T790M mutant at 10 uM by KINOMEscan analysis relative to control; values are per cent of control
[28] = target: Tyrosine-protein kinase JAK2 (Homo sapiens) (UniProt O60674); assay: Inhibition of T7 bacteriophage fused human JAK2 JH1catalytic domain at 10 uM by KINOMEscan analysis relative to control; values are per cent of control
[29] = target: Serine/threonine-protein kinase STK11 (Homo sapiens) (UniProt Q15831); assay: Inhibition of LKB1 Lys2 labeling site in human HEL cell lysate at 10 uM by KiNativ profiling analysis relative to control; format: subcellular
Sequence of Serine/threonine-protein kinase STK11 (Homo sapiens) (Q15831 whole entry): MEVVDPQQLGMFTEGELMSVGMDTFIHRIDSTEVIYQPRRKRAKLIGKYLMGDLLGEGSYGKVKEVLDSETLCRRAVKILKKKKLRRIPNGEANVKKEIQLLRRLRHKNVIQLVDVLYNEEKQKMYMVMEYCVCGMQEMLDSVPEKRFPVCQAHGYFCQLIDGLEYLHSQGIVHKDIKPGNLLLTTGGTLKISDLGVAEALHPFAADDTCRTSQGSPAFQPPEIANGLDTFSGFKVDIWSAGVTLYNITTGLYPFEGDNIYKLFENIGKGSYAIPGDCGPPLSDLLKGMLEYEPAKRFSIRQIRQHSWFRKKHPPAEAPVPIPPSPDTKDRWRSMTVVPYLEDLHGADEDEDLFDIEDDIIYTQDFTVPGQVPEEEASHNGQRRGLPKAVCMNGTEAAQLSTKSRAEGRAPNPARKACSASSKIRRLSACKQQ

Sequence of Mast/stem cell growth factor receptor Kit (Homo sapiens), P10721 [D816H] (P10721 whole entry D816H, the tested form may be a part): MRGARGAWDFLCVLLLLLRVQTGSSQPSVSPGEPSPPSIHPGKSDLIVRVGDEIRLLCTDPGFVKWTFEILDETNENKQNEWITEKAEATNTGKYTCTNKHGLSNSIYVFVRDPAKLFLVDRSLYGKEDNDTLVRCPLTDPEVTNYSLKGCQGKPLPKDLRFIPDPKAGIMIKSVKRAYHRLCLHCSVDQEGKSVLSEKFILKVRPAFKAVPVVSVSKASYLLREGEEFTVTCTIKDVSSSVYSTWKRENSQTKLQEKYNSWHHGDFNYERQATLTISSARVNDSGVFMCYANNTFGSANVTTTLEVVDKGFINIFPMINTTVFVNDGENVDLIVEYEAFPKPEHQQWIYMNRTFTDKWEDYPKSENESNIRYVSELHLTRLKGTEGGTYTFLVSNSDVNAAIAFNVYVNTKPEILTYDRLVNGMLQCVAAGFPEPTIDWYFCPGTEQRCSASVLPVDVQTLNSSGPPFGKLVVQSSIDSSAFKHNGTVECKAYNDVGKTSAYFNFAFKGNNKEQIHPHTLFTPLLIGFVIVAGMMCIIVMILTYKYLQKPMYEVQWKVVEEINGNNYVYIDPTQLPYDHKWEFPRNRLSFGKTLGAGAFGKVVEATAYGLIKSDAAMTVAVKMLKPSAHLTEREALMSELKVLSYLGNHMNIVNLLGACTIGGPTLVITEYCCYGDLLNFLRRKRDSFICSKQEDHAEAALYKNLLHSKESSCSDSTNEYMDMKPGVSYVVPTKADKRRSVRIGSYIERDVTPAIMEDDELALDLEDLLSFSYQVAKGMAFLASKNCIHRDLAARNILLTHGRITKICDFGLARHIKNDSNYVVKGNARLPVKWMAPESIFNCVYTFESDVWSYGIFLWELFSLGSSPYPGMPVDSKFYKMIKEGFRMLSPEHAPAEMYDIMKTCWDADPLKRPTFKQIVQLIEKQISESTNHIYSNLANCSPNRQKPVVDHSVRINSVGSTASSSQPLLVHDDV
Sequence of Mast/stem cell growth factor receptor Kit (Homo sapiens), P10721 [A829P] (P10721 whole entry A829P, the tested form may be a part): as the sequence (P10721 whole entry D816H, the tested form may be a part) above, with H816D, A829P counted along it
Sequence of Serine/threonine-protein kinase B-raf (Homo sapiens), P15056 [V600E] (P15056 whole entry V600E, the tested form may be a part, canonical isoform): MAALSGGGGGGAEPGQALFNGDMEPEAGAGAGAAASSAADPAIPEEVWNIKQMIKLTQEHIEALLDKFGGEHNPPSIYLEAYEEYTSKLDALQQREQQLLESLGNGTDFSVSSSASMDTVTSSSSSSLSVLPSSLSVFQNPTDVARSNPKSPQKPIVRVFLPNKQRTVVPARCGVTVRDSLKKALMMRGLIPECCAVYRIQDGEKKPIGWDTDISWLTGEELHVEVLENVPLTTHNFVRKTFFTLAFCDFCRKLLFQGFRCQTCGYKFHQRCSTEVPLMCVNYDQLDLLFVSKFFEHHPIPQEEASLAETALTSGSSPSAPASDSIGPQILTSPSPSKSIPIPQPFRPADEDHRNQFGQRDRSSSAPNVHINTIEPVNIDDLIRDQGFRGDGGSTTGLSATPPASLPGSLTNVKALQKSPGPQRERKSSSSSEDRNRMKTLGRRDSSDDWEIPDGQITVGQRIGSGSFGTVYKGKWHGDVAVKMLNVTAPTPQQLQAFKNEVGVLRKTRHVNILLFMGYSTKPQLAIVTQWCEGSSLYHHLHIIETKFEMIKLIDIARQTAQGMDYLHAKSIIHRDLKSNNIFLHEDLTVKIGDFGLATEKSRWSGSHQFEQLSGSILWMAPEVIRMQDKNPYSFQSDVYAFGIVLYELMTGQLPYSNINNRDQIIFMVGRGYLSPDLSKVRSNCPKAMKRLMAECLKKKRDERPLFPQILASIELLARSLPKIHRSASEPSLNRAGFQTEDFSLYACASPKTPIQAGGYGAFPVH
Sequence of Cyclin-dependent kinase-like 3 (Homo sapiens) (Q8IVW4 whole entry, looked up, the tested form may be a part): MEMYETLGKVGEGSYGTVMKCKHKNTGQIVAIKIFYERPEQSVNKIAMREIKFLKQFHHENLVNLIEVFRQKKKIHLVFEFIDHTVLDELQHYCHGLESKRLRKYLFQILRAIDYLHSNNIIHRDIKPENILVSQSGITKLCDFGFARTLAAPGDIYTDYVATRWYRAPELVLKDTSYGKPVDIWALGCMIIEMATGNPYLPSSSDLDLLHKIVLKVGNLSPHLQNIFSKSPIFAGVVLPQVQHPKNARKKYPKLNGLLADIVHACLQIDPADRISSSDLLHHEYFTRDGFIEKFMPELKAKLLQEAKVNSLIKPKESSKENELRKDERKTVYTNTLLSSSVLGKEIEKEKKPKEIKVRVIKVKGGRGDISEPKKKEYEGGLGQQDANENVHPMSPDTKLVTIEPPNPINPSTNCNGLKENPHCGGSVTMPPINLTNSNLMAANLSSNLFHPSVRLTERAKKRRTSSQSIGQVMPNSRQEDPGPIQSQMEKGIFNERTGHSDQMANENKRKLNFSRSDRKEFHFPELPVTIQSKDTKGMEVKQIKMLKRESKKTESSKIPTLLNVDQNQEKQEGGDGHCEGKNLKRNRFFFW
Sequence of Activin receptor type-2B (Homo sapiens) (Q13705 whole entry, the tested form may be a part): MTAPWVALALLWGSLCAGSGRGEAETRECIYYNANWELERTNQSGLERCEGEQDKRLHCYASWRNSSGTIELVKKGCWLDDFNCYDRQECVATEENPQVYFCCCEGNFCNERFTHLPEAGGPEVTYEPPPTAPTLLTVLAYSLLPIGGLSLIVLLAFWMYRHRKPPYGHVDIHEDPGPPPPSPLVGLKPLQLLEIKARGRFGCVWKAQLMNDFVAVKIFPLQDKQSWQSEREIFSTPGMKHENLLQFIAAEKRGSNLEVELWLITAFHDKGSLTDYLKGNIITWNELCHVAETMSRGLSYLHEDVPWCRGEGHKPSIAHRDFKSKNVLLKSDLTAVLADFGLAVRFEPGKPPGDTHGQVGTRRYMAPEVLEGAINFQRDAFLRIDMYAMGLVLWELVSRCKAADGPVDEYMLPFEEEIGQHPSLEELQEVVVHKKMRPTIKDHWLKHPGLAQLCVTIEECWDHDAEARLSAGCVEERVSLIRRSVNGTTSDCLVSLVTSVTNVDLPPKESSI
Sequence of Phosphatidylinositol 4,5-bisphosphate 3-kinase catalytic subunit gamma isoform (Homo sapiens) (P48736 whole entry, looked up, the tested form may be a part, canonical isoform): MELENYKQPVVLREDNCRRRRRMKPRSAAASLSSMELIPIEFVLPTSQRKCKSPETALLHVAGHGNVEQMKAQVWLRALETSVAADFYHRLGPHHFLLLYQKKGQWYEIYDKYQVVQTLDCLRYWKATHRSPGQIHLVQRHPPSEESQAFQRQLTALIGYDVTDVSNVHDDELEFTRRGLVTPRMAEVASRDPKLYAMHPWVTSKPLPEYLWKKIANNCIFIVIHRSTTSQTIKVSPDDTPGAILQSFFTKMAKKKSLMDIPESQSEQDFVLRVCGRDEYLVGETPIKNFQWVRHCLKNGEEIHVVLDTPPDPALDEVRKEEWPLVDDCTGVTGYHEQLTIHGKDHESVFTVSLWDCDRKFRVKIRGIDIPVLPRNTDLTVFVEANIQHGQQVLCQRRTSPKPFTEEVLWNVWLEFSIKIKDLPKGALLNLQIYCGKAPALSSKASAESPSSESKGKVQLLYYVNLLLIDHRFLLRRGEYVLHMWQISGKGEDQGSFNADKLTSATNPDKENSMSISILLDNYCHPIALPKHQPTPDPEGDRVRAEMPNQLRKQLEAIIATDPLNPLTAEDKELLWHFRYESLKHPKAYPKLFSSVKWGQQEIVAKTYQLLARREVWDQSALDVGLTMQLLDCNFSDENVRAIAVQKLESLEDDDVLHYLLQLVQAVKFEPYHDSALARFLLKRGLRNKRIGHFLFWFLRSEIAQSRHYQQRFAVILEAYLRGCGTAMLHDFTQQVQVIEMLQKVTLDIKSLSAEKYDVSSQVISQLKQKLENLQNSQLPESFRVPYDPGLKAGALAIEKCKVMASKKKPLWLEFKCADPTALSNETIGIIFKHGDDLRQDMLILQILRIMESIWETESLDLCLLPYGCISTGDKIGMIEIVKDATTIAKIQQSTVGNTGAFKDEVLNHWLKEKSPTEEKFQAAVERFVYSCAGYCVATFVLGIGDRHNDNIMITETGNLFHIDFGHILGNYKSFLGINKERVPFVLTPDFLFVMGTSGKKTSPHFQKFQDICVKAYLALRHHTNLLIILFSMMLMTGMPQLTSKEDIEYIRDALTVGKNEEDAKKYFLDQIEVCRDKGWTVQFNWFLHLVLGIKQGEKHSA
Sequence of Aurora kinase C (Homo sapiens) (Q9UQB9 whole entry, the tested form may be a part): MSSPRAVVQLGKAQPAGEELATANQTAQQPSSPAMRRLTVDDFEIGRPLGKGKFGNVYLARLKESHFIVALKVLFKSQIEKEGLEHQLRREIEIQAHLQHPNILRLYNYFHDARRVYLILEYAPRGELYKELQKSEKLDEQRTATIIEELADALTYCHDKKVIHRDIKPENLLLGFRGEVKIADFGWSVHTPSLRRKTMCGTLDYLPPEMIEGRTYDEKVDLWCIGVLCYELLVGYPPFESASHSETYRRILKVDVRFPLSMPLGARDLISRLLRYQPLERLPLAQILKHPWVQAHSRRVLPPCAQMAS

COc1cc(N2CCC(N3CCN(C)CC3)CC2)ccc1Nc1ncc2c(n1)N(C)c1ccccc1C(=O)N2C
inhibition [1]: 17%
inhibition [2]: 82%
inhibition [3]: 100%
inhibition [4]: 50%
inhibition [5]: 100%
inhibition [6]: 100%
inhibition [7]: 100%
inhibition [8]: 100%
inhibition [9]: 92%
inhibition [10]: 100%
inhibition [11]: 100%
inhibition [12]: 83%
inhibition [13]: 98%
inhibition [14]: 100%
inhibition [15]: 89%
inhibition [16]: 77%
inhibition [17]: 15%
inhibition [18]: 100%
inhibition [19]: 89%
residual activity [20]: 50%
residual activity [21]: 91%
residual activity [22]: 85%
residual activity [23]: 83%
residual activity [24]: 83%
residual activity [25]: 97%
residual activity [26]: 60%
residual activity [27]: 88%
residual activity [28]: 70%

COc1cc(C(=O)N2CCC(N3CCN(C)CC3)CC2)ccc1Nc1ncc2c(n1)N(C1CCCC1)c1ccccc1C(=O)N2C
inhibition [29]: -0.3%
